Laboratory results: the supplement of paper PMC10307832

Tests used:
Assay in all cases: relative viability (nuclei count vs DMSO), 5 days (fraction); higher = more cells survive
EHT 1864 + Palbociclib = compound: C1COCCN1CC2=CC(=O)C(=CO2)OCCCCCSC3=C4C=CC(=CC4=NC=C3)C(F)(F)F [EHT 1864] + CC(=O)c1c(C)c2cnc(Nc3ccc(N4CCNCC4)cn3)nc2n(C2CCCC2)c1=O [Palbociclib] (partner 0.5 µM)
Outline: (§1)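 Medians of duplicate plates are given as relative viability. That measure is the nuclei count in treated wells divided by the count in vehicle wells. Counts were taken on 4× images of lung cancer cell lines in 1536-well plates, 5 days after pin-tool dosing the day after seeding with one drug alone or a fixed anchor-drug dose plus five library-drug doses (not always all listed) in √10 steps.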

EHT 1864 + Alpelisib = compound: C1COCCN1CC2=CC(=O)C(=CO2)OCCCCCSC3=C4C=CC(=CC4=NC=C3)C(F)(F)F [EHT 1864] + Cc1nc(NC(=O)N2CCC[C@H]2C(N)=O)sc1-c1ccnc(C(C)(C)C(F)(F)F)c1 [Alpelisib] (partner 2 µM)
Outline: as §1

EHT 1864 + Pemetrexed = compound: C1COCCN1CC2=CC(=O)C(=CO2)OCCCCCSC3=C4C=CC(=CC4=NC=C3)C(F)(F)F [EHT 1864] + Nc1nc2[nH]cc(CCc3ccc(C(=O)N[C@@H](CCC(=O)O)C(=O)O)cc3)c2c(=O)[nH]1 [Pemetrexed] (partner 0.2 µM)
Outline: as §1

EHT 1864 + Olaparib = compound: C1COCCN1CC2=CC(=O)C(=CO2)OCCCCCSC3=C4C=CC(=CC4=NC=C3)C(F)(F)F [EHT 1864] + O=C(c1cc(Cc2n[nH]c(=O)c3ccccc23)ccc1F)N1CCN(C(=O)C2CC2)CC1 [Olaparib] (partner 8 µM)
Outline: as §1

Cell Line	relative viability (EHT 1864 + Palbociclib; first compound 0.04 µM)	relative viability (EHT 1864 + Palbociclib; first compound 0.1265 µM)	relative viability (EHT 1864 + Palbociclib; first compound 0.4 µM)	relative viability (EHT 1864 + Palbociclib; first compound 1.265 µM)	relative viability (EHT 1864 + Palbociclib; first compound 4 µM)	relative viability (EHT 1864 + Alpelisib; first compound 0.04 µM)	relative viability (EHT 1864 + Alpelisib; first compound 0.1265 µM)	relative viability (EHT 1864 + Alpelisib; first compound 0.4 µM)	relative viability (EHT 1864 + Alpelisib; first compound 1.265 µM)	relative viability (EHT 1864 + Alpelisib; first compound 4 µM)	relative viability (EHT 1864 + Pemetrexed; first compound 0.04 µM)	relative viability (EHT 1864 + Pemetrexed; first compound 0.1265 µM)	relative viability (EHT 1864 + Pemetrexed; first compound 0.4 µM)	relative viability (EHT 1864 + Pemetrexed; first compound 1.265 µM)	relative viability (EHT 1864 + Pemetrexed; first compound 4 µM)	relative viability (EHT 1864 + Olaparib; first compound 0.04 µM)	relative viability (EHT 1864 + Olaparib; first compound 0.1265 µM)	relative viability (EHT 1864 + Olaparib; first compound 0.4 µM)	relative viability (EHT 1864 + Olaparib; first compound 1.265 µM)	relative viability (EHT 1864 + Olaparib; first compound 4 µM)
NCI-H3122	0.172	0.21	0.211	0.203	0.201	0.869	0.751	0.774	0.732	0.766	0.189	0.179	0.206	0.202	0.185	0.556	0.58	0.627	0.596	0.612
PC-3 [JPC-3]	0.549	0.554	0.539	0.545	0.57	1.04	0.944	1.01	0.957	0.987	1.07	0.944	1.1	1.09	1.03	1.15	1.04	1.14	1.03	1.05
PC-14	0.489	0.446	0.524	0.582	0.471	0.916	0.888	0.952	0.901	0.846	0.121	0.124	0.137	0.133	0.133	0.264	0.36	0.266	0.331	0.265
RERF-LC-KJ	1.09	0.989	0.929	1.02	1.11	0.759	0.743	0.755	0.947	0.776	0.46	0.443	0.484	0.462	0.504	0.902	0.86	0.849	0.913	0.76
SK-LU-1	0.474	0.323	0.395	0.37	0.352	1.02	1.02	0.928	0.996	0.815	0.982	0.935	1.03	0.872	0.901	0.464	0.515	0.471	0.451	0.447
SK-MES-1	0.379	0.3	0.356	0.301	0.342	0.934	0.823	0.884	0.92	0.906	0.93	0.852	0.857	0.882	0.85	0.768	0.765	0.775	0.737	0.698
SW 1573	0.299	–	0.481	0.416	0.317	0.772	0.896	0.737	0.608	0.719	0.737	–	0.78	0.869	0.775	0.499	0.515	0.451	0.472	0.423
UMC-11	0.339	0.266	0.281	0.343	0.31	0.887	1.01	0.976	0.962	1.02	0.763	0.706	0.843	0.764	0.888	0.379	0.383	0.426	0.383	0.356
